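Tested at 5 concentrations; 48 h exposure; 96-well plates; endpoints linearly interpolated, else capped at highest concentration. At the GI50, growth is halved.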 Active and inactive are the calls of the source. Cut-off read from the data, not from the text of the source: active = GI50 up to about 1.1 µM and inactive = higher.
Assays:
Assay in all cases: NCI anticancer screen, dose series, 48 h
UACC-62 = tested on: UACC-62
TK-10 = tested on: TK-10
HT-29 = tested on: HT-29
NCI-H23 = tested on: NCI-H23
UO-31 = tested on: UO-31
BT-549 = tested on: BT-549
RXF 393 = tested on: RXF 393
M14 = tested on: M14
HCT-15 = tested on: HCT-15
RPMI-8226 = tested on: RPMI-8226
KM12 = tested on: KM12
SNB-75 = tested on: SNB-75
NCI/ADR-RES = tested on: NCI/ADR-RES
NCI-H226 = tested on: NCI-H226
CAKI-1 = tested on: CAKI-1
SK-OV-3 = tested on: SK-OV-3
U-251 = tested on: U-251
SN12C = tested on: SN12C
NCI-H460 = tested on: NCI-H460
SF-539 = tested on: SF-539

Compound	GI50 (UACC-62)	GI50 (TK-10)	GI50 (HT-29)	GI50 (NCI-H23)	GI50 (UO-31)	GI50 (BT-549)	GI50 (RXF 393)	GI50 (M14)	GI50 (HCT-15) [µM]	GI50 (RPMI-8226)	GI50 (KM12)	GI50 (SNB-75)	GI50 (NCI/ADR-RES)	GI50 (NCI-H226)	GI50 (CAKI-1)	GI50 (SK-OV-3)	GI50 (U-251)	GI50 (SN12C)	GI50 (NCI-H460)	GI50 (SF-539)
C=C(C)CN(CC#N)CC(=C)C	> 100 µM (inactive)	> 100 µM (inactive)	> 100 µM (inactive)	> 100 µM (inactive)	> 100 µM (inactive)	> 100 µM (inactive)	> 100 µM (inactive)	> 100 µM (inactive)	> 100	> 100 µM (inactive)	> 100 µM (inactive)	> 100 µM (inactive)	> 100 µM (inactive)	> 100 µM (inactive)	> 100 µM (inactive)	> 100 µM (inactive)	> 100 µM (inactive)	> 100 µM (inactive)	–	–
N#C/C(=C\c1cn(Cc2ccccc2)c2ccccc12)c1nn(-c2ccccc2)c(N)c1C#N	10.8 µM (inactive)	15.8 µM (inactive)	11.3 µM (inactive)	14.2 µM (inactive)	12.9 µM (inactive)	22.3 µM (inactive)	4.81 µM (inactive)	20.4 µM (inactive)	31.1	19.8 µM (inactive)	26.1 µM (inactive)	4.07 µM (inactive)	17.4 µM (inactive)	–	17.4 µM (inactive)	15.2 µM (inactive)	13.6 µM (inactive)	15.3 µM (inactive)	12 µM (inactive)	3.11 µM (inactive)
N/C1=C/C(=O)NC(=O)c2c(c3ccccc3oc2=O)C1	> 100 µM (inactive)	> 100 µM (inactive)	> 100 µM (inactive)	> 100 µM (inactive)	> 100 µM (inactive)	> 100 µM (inactive)	> 100 µM (inactive)	> 100 µM (inactive)	> 100	62.8 µM (inactive)	> 100 µM (inactive)	> 100 µM (inactive)	> 100 µM (inactive)	> 100 µM (inactive)	> 100 µM (inactive)	–	> 100 µM (inactive)	> 100 µM (inactive)	> 100 µM (inactive)	–
CCOC(=O)C1C(=O)CC(C)(O)C(C(=O)OCC)C1c1ccc(N(C)C)cc1 (stereo not drawn)	> 100 µM (inactive)	> 100 µM (inactive)	> 100 µM (inactive)	> 100 µM (inactive)	> 100 µM (inactive)	> 100 µM (inactive)	> 100 µM (inactive)	–	> 100	–	> 100 µM (inactive)	> 100 µM (inactive)	> 100 µM (inactive)	> 100 µM (inactive)	> 100 µM (inactive)	–	> 100 µM (inactive)	> 100 µM (inactive)	> 100 µM (inactive)	–
NC(=O)C(NC=O)c1ccccc1 (stereo not drawn)	> 100 µM (inactive)	> 100 µM (inactive)	> 100 µM (inactive)	> 100 µM (inactive)	> 100 µM (inactive)	> 100 µM (inactive)	> 100 µM (inactive)	> 100 µM (inactive)	> 100	–	> 100 µM (inactive)	> 100 µM (inactive)	> 100 µM (inactive)	–	> 100 µM (inactive)	> 100 µM (inactive)	> 100 µM (inactive)	> 100 µM (inactive)	> 100 µM (inactive)	> 100 µM (inactive)
N=C1N(S(=O)(=O)c2ccccc2)[C@@H](Cc2ccccc2)[C@H](c2ccccc2)C1(c1ccccc1)c1ccccc1	> 100 µM (inactive)	> 100 µM (inactive)	> 100 µM (inactive)	41.4 µM (inactive)	8.55 µM (inactive)	> 100 µM (inactive)	63.2 µM (inactive)	> 100 µM (inactive)	> 100	14 µM (inactive)	31.4 µM (inactive)	> 100 µM (inactive)	70.1 µM (inactive)	–	> 100 µM (inactive)	> 100 µM (inactive)	64.1 µM (inactive)	> 100 µM (inactive)	36.7 µM (inactive)	> 100 µM (inactive)
